Article PMC7646549, “Novel piperidine derivatives as colchicine binding site inhibitors induce apoptosis and inhibit epithelial-mesenchymal transition against prostate cancer PC3 cells” (Journal of Enzyme Inhibition and Medicinal Chemistry, 2020)

Tested on: T1, tubulin (β-tubulin, colchicine binding site)
T1 construct: gene TUBB; with α-tubulin
Experiment: in vitro tubulin polymerisation assay; supported by EBI competition assay (β-tubulin adduct) in PC3 cells
Type: biochemical

## COc1ccc(CN(C(=O)CN2C(=O)CCCC2=O)c2cc(OC)c(OC)c(OC)c2)cc1 [17a, 2–(2,6-Dioxopiperidin-1-yl)-N-(4-methoxybenzyl)-N-(3,4,5-trimethoxyphenyl) acetamide]
  IC50: 2.03 µM
